Assay results reported in patent US9249139B2, “Indolizinone based derivatives as potential phosphodiesterase 3 (PDE3) inhibitors and a process for the preparation thereof” (COUNCIL OF SCIENTIFIC & INDUSTRIAL RESEARCH, priority 2013, dated 2016).

target: PDE3 enzyme (Homo sapiens (Human), UniProt Q14432); experiment: PDE3 inhibition assay, BIOMOL GREEN Quantizyme Assay System; format: biochemical; settings: PDE3 enzyme from platelets isolated from human blood; cAMP substrate; 1 hour at 37° C.; read at 620 nm
Description: PDE3 inhibition assay was performed a BIOMOL GREEN™ Quantizyme Assay System (catalogue No. BML-AK800-0001). The Platelets isolated from human blood were used as a source of PDE3 enzyme. 10 mL blood collected in a vacutainer tube (containing K3 EDTA) and centrifuged at 190×g for 15 min at room temperature. Top layer (platelet rich plasma) collected, centrifuged at 2500g for 5 min at 22° C. (Room temp.) The pellet was washed with 2 ml of 50 mM tris buffer (pH-7.4) containing 1 mM MgCl2 and centrifuged at 2500 g for 5 min. Then 200 μl of assay buffer (from PDE kit, Enzo Life Sciences) was added to the pellet and sonicated at 30 s per ml. Pellet was freeze thawed for three times (−80° C.) in order to rupture the platelet membrane and release the PDE enzyme. Then the cell homogenate was centrifuged at 2500 rpm for 5 min. Supernatant was collected and used as source for PDE3 enzyme. In 96 well plate (Prod. No. BML-KI101), we added supernatant having PDE3 enzyme, PDE3 assay buffer, cAMP substrate, 5′nucleotidase and test or standard compound and incubated for 1 hour at 37° C. The reaction was arrested by the addition 100 μl BIOMOL GREEN reagent incubated in room temp for 20 min. The green color developed was measured at 620 nm
The in vitro Phosphodiestarase (PDE3) inhibitory activity of compounds 1a-p were measured using a BIOMOL GREEN™ Quantizyme Assay System (catalogue No. BML-AK800-0001). The basic principle for this assay is the cleavage of c-AMP or c-GMP into their respective nucleotide by a cyclic nucleotide phosphodiesterase. The nucleotide (AMP or GMP) released is further cleaved into the nucleoside and phosphate by the enzyme 5′-nucleotidase. The extent of phosphate released is directly proportional to the PDE activity. In this screening method, the released phosphate by the enzymatic cleavage is quantified using BIOMOL GREEN reagent in a modified malachite green assay. The resulting green colour with λmax at 620 nm is directly proportional to the released phosphate and then PDE activity.

Sequence of PDE3 enzyme (Q14432 whole entry): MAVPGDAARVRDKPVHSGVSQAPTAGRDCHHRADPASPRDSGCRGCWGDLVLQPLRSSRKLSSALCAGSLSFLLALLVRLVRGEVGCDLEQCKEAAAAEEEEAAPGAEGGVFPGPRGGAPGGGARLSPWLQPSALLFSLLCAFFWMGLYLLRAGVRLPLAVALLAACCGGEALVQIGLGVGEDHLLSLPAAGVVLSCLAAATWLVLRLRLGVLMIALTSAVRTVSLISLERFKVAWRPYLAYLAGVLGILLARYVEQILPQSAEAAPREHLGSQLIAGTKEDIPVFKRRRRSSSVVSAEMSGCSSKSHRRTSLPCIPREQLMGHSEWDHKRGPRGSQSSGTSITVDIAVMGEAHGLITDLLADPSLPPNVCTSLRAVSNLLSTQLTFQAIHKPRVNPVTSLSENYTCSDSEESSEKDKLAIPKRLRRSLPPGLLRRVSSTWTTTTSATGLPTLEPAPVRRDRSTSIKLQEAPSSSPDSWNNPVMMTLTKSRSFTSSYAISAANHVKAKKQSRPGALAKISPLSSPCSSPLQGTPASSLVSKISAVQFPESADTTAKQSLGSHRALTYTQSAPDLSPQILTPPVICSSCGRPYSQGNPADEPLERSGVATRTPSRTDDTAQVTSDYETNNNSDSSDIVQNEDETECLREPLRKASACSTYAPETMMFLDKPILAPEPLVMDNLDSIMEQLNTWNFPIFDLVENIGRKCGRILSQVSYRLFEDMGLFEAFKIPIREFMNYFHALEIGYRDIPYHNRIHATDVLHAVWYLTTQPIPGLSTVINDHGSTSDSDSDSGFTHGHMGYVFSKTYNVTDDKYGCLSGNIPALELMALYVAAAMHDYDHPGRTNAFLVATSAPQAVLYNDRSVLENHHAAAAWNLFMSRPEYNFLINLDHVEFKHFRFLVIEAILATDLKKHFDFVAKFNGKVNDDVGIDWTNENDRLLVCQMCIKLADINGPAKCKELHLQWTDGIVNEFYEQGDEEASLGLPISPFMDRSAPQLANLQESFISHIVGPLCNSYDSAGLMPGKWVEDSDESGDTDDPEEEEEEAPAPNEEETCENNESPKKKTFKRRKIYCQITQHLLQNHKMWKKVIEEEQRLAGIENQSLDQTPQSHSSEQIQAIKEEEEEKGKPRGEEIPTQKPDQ

Row | Structure (SMILES) | IC50
1 | CCOC(=O)c1cc(Cc2ccc(Cl)cc2Cl)c(=O)n2c1CCC2 [Compound 1h, Ethyl 6-(2,4-dichlorobenzyl)-5-oxo-1,2,3,5-tetrahydro-8-indolizinonecarboxylate] | 577 nM
2 | CCOC(=O)c1cc(Cc2ccccc2)c(=O)n2c1CCC2 [Compound 1a, Ethyl 6-benzyl-5-oxo-1,2,3,5-tetrahydro-8-indolizinonecarboxylate] | 435 nM
3 | CCOC(=O)c1cc(Cc2cccc(Br)c2)c(=O)n2c1CCC2 [Compound 1j, Ethyl 6-(3-bromobenzyl)-5-oxo-1,2,3,5-tetrahydro-8-indolizinonecarboxylate] | 11.3 nM
4 | CCOC(=O)c1cc(Cc2ccc(Br)cc2)c(=O)n2c1CCC2 [Compound 1k, Ethyl 6-(4-bromobenzyl)-5-oxo-1,2,3,5-tetrahydro-8-indolizinonecarboxylate] | 67.3 nM
5 | CCOC(=O)c1cc(Cc2ccccc2Cl)c(=O)n2c1CCC2 [Compound 1e, Ethyl 6-(2-chlorobenzyl)-5-oxo-1,2,3,5-tetrahydro-8-indolizinonecarboxylate] | 129 nM
6 | CCOC(=O)c1cc(Cc2ccc(Cl)cc2)c(=O)n2c1CCC2 [Compound 1g, Ethyl 6-(4-chlorobenzyl)-5-oxo-1,2,3,5-tetrahydro-8-indolizinonecarboxylate] | 108 nM
7 | CCOC(=O)c1cc(Cc2cccc(F)c2)c(=O)n2c1CCC2 [Compound 1c, Ethyl 6-(3-fluorobenzyl)-5-oxo-1,2,3,5-tetrahydro-8-indolizinonecarboxylate] | 13.5 nM
8 | CCOC(=O)c1cc(Cc2ccc(F)cc2)c(=O)n2c1CCC2 [Compound 1d, Ethyl 6-(4-fluorobenzyl)-5-oxo-1,2,3,5-tetrahydro-8-indolizinonecarboxylate] | 1600 nM
